Data taken from patent publication US12233161B1, “Lipids and lipid nanoparticle formulations” (LONGUIDE BIOPHARMA CORPORATION, priority 2024, dated 2025).
One block for each compound: values may come before it.

Experiments:
[1] = Particle size and PDI of nucleic acid lipid nanoparticle preparations by dynamic light scattering; assay type: physicochemical
Method: The 7.5 μL nucleic acid lipid nanoparticle solution (containing approximately 0.04 mg/mL mRNA) was taken and added with 200 μL ultrapure water, mixed by gentle blowing using a pipette tip, and the particle size of the nanopreparation was detected by dynamic lightscattering (DLS) using a Malvern Dynamic Light Scattering Instrument (Malvern Instruments Ltd., ZEN3700, UK).
27.5 μL nucleic acid lipid nanoparticle solution (containing about 0.04 mg/mL mRNA) was taken and added with 200 μL ultrapure water. A pipette tip was used to gently blow the sample and mix well. The particle size of the nanopreparation was detected by Malvern Dynamic Light Scattering Instrument (Malvern Instruments Ltd., ZEN3700, UK). After the detection, the sample was recovered to an EP tube, and 600 μL of ultrapure water was added, gently blown with a pipette tip, and the potential of the nanopreparation was measured by a Malvern particle size meter.

[2] = system: mice; assay: In vivo delivery of FLuc-mRNA lipid nanoparticles in mice, in vivo imaging (IVIS)
In short: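 Mice (n=3) received about 75 μL FLuc-mRNA LNP per mouse intramuscularly (rectus femoris), intravenously (tail vein), intraperitoneally or subcutaneously (back). After injection, D-luciferin (200 μL, 15 mg/mL) was given i.p. 10-15 min before IVIS imaging.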

[3] = DMG-PEG2000:DSPC:Chol:compound 1.40:11.15:38.95:48.50, N/P 20
[4] = DMG-PEG2000:DSPC:Chol:Lipid 1.40:11.15:38.95:48.50, N/P 18, mRNA LNP
[5] = DMG-PEG2000:DSPC:Chol:compound 1.40:11.15:38.95:48.50, N/P 30
[6] = DMG-PEG2000:DSPC:Chol:Lipid 1.40:11.15:38.95:48.50, N/P 30, mRNA LNP
[7] = DMG-PEG2000:DSPC:Chol:Lipid 2.63:12.10:53.68:31.59, N/P 30, mRNA LNP
[8] = DMG-PEG2000:DSPC:Chol:Lipid 1.40:11.15:38.95:48.50, N/P 30, IV, liver
[9] = DMG-PEG2000:DSPC:Chol:Lipid 1.40:11.15:38.95:48.50, N/P 30, IV, lung
[10] = DMG-PEG2000:DSPC:Chol:Lipid 1.40:11.15:38.95:48.50, N/P 30, IV, spleen
[11] = DMG-PEG2000:DSPC:Chol:Lipid 2.63:12.10:53.68:31.59, N/P 30, IV, liver
[12] = DMG-PEG2000:DSPC:Chol:Lipid 2.63:12.10:53.68:31.59, N/P 30, IV, lung
[13] = DMG-PEG2000:DSPC:Chol:Lipid 2.63:12.10:53.68:31.59, N/P 30, IV, spleen

PDI [1, 3]: 0.18 | Particle size (nm) [1, 3]: 158.43 nm
SMILES: CCCCCCOCOCCCCCCOC(=O)C(O)CN(CCOCCOCCN(CC(O)C(=O)OCCCCCCOCOCCCCCC)CC(O)C(=O)OCCCCCCOCOCCCCCC)CC(O)C(=O)OCCCCCCOCOCCCCCC (stereo not drawn) [Compound L0329]
IVIS ([2]; IM, DMG-PEG2000:DSPC:Chol:compound 1.40:11.15:38.95:48.50, N/P 20, Fluc-mRNA): 4.22E+06 | IVIS ([2]; IV, body, DMG-PEG2000:DSPC:Chol:compound 1.40:11.15:38.95:48.50, N/P 20, Fluc-mRNA): 3.09E+06 | % of organ targeting ([2]; IV, liver, DMG-PEG2000:DSPC:Chol:compound 1.40:11.15:38.95:48.50, N/P 20): 25.67% | IVIS ([2]; IV, liver, DMG-PEG2000:DSPC:Chol:compound 1.40:11.15:38.95:48.50, N/P 20, Fluc-mRNA): 5.34E+05 | % of organ targeting ([2]; IV, lung, DMG-PEG2000:DSPC:Chol:compound 1.40:11.15:38.95:48.50, N/P 20): 5.35% | IVIS ([2]; IV, lung, DMG-PEG2000:DSPC:Chol:compound 1.40:11.15:38.95:48.50, N/P 20, Fluc-mRNA): 1.11E+05 | % of organ targeting ([2]; IV, spleen, DMG-PEG2000:DSPC:Chol:compound 1.40:11.15:38.95:48.50, N/P 20): 68.99% | IVIS ([2]; IV, spleen, DMG-PEG2000:DSPC:Chol:compound 1.40:11.15:38.95:48.50, N/P 20, Fluc-mRNA): 1.44E+06

PDI [1, 4]: 0.12 ± 0.02 | Particle size [1, 4]: 150.97 ± 2.57 nm
SMILES: CC/C=C\CCOCOCCCCCCOC(=O)C(O)CN(C)CCN(C)CCN(C)CC(O)C(=O)OCCCCCCOCOCC/C=C\CC (stereo not drawn) [Compound L0284]
IVIS ([2]; DMG-PEG2000:DSPC:Chol:Lipid 1.40:11.15:38.95:48.50, N/P 18, IM, whole body scan): 5.87 × 10^4 | IVIS ([2]; DMG-PEG2000:DSPC:Chol:Lipid 1.40:11.15:38.95:48.50, N/P 18, IV, whole body scan): 2.03 × 10^5

PDI [1, 5]: 0.22 | Particle size (nm) [1, 5]: 190.63 nm
SMILES: CCCCCCCCCCCCOC(=O)C(O)CN(C)CCCN(C)CCCN(C)CC(O)C(=O)OCCCCCCCCCCCC (stereo not drawn) [Compound L0310]
IVIS ([2]; IM, DMG-PEG2000:DSPC:Chol:compound 1.40:11.15:38.95:48.50, N/P 30, Fluc-mRNA): 1.53E+05 | IVIS ([2]; IV, organ not given, DMG-PEG2000:DSPC:Chol:compound 1.40:11.15:38.95:48.50, N/P 30, Fluc-mRNA): 2.77E+05

PDI [1, 6]: 0.12 ± 0.01 | Particle size [1, 6]: 99.68 ± 0.45 nm | PDI [1, 7]: 0.12 ± 0.01 | Particle size [1, 7]: 95.92 ± 0.22 nm
SMILES: CCCCCCCCCCCCNC(=O)C(O)CN(CCCCN(C)CCCCN(CC(O)C(=O)NCCCCCCCCCCCC)CC(O)C(=O)NCCCCCCCCCCCC)CC(O)C(=O)NCCCCCCCCCCCC (stereo not drawn) [Compound L0283]
IVIS ([2]; DMG-PEG2000:DSPC:Chol:Lipid 1.40:11.15:38.95:48.50, N/P 30, IM, whole body scan): 2.02 × 10^6 | IVIS ([2]; DMG-PEG2000:DSPC:Chol:Lipid 1.40:11.15:38.95:48.50, N/P 30, IV, body (whole body scan)): 1.94 × 10^8 | % of organ targeting [2, 8]: 0.75% | IVIS [2, 8]: 9.53 × 10^6 | % of organ targeting [2, 9]: 98.03% | IVIS [2, 9]: 1.24 × 10^9 | % of organ targeting [2, 10]: 1.22% | IVIS [2, 10]: 1.54 × 10^7 | IVIS ([2]; DMG-PEG2000:DSPC:Chol:Lipid 2.63:12.10:53.68:31.59, N/P 30, IV, body): 4.87 × 10^7 | % of organ targeting [2, 11]: 5.72% | IVIS [2, 11]: 3.31 × 10^6 | % of organ targeting [2, 12]: 25.56% | IVIS [2, 12]: 1.48 × 10^7 | % of organ targeting [2, 13]: 68.73% | IVIS [2, 13]: 3.98 × 10^7 | in vivo delivery efficiency as compared to the benchmark compound SM102 ([2]; certain formulations, Table 2): superior in vivo delivery efficiency | tissue-targeting specificity (lung vs spleen depending on molar percentage of compound) ([2]; certain formulations, Table 2): strong tissue-targeting specificity
